Test system: amoxicillin-sensitive bacterial strain of Escherichia coli (ATCC 8739)
Test: Enzymatic test in liquid medium (growth inhibition with or without β-lactamase and cineole)
Type: cell-based
Settings: for % inhibition of growth: AMX 6 μg/ml, cineole 0.002 μl/ml, β-lactamase 0.03 U/ml where present, 22 hours at 30° C.
Protocol: This study is based on an enzymatic test first placing AMX combined with cineole in contact with ß-lactamases. The antibacterial activity of this antibiotic was then checked on an AMX-sensitive strain of Escherichia coli.
An amoxicillin-sensitive bacterial strain of Escherichia coli (ATCC 8739) was supplied by the national hygiene institute (INH-Rabat).
For each test performed, precultures of this E. coli strain of 24 h at 37° C. were prepared from this bacterial strain (frozen beforehand at −20° C.). From these precultures, bacterial inocula of 3.3×10^6 CFU/ml were prepared, adjusting the optical density to 540 nm.
The ß-lactamase powder was supplied by Sigma Aldrich (France). It was dissolved according to the supplier's instructions, at 10 mg/ml in 0.1 M of Tris HCl at pH 7, containing 0.1% of gelatin. The ß-lactamase (0.03 U/ml) thus prepared was stored between 2 and 8° C.
The MIC of AMX at 100% with respect to the sensitive strain of Escherichia coli, determined via the microdilution method described previously, is of the order of 6 μg/ml.
Starting with a 24 h preculture of the sensitive strain of E. coli, bacterial inocula at 3.3×10^6 CFU/ml were prepared, adjusting the optical density to 540 nm.
Five control tubes and one test tube were prepared as described in table 6 (cf. below).
Tube no 1 corresponds to the sterility control of the medium. Tube no 2 corresponds to the positive control of viability of the bacterial strain. Tube no 3 corresponds to the control of sensitivity of the strain to AMX. Tube no 4 corresponds to the control of non-inhibition of bacterial growth with an infra-inhibitory concentration of cineole. Tube no 5 corresponds to the control of degradation of AMX in the presence of ß-lactamase. Tube no 6 corresponds to the test of the effect of cineole on amoxicillin inhibition by the β-lactamases.
The OD was measured at time t=0, and after 22 hours of incubation at 30° C. The percentage of inhibition was then calculated according to the formula described previously:
With ODT0=OD of the test tube at time t=0, ODT22=OD of the test tube after 22 h of incubation, ODC0=OD of the positive control tube at time t=0, ODC22=OD of the positive control tube after 22 h of incubation.

Structure (SMILES): CC12CCC(CC1)C(C)(C)O2 [cineole, 1,8-cineole]
- % inhibition of growth: no growth inhibition
- % inhibition of growth (listed as Cineole): 0% ± 0.0

Structure (SMILES): CC1(C)S[C@@H]2[C@H](NC(=O)[C@H](N)c3ccc(O)cc3)C(=O)N2[C@H]1C(=O)O [amoxicillin, Amoxicillin]
- % inhibition of growth: 100% ± 0.0
- MIC (ATCC8739, sensitive strain of Escherichia coli, microdilution, read-out: MIC of AMX at 100%): ~6 µg/mL

From patent US11872216B2, “Pharmaceutical formulation comprising cineole and amoxicillin” (priority 2016, dated 2024)
